Source: patent US20210255184A1, “Biosensor Device and Methods” (The New Zealand Institute for Plant and Food Research …, priority 2018, published 2021)

Target: T1, Or22a/Orco (Drosophila melanogaster, UniProt P81909)
T1 construct: his-tag; made in house; host or cells: baculovirus-infected Sf9 cells
T1 sequence (P81909 1-397): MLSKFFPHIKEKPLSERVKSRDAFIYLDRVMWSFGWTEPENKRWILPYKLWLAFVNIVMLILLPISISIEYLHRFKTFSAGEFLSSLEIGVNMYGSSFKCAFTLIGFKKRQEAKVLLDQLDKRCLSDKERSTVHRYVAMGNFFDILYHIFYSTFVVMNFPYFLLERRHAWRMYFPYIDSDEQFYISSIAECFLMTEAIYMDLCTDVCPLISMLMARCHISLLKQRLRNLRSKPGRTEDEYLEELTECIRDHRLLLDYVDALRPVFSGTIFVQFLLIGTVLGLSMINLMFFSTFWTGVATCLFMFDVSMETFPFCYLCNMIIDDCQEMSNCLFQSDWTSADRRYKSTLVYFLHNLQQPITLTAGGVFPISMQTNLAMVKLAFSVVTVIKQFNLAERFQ
T1 sequence (Q9VNB5 1-486 partner): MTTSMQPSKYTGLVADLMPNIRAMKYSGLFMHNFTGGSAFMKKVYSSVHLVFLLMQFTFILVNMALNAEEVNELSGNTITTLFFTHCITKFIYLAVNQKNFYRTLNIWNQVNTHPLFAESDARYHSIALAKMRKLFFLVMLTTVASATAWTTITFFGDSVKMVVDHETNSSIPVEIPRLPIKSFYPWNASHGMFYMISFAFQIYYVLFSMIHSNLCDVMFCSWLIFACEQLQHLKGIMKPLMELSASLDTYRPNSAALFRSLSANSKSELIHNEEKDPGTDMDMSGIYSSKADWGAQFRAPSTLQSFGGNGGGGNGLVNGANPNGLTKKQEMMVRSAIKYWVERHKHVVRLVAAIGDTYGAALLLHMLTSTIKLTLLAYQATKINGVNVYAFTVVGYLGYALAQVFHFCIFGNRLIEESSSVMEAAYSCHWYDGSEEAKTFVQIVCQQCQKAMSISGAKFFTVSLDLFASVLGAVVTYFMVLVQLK
Experiment: EIS sensor, Or22a/Orco liposomes on gold electrode
Format: biochemical
Experimental: Prior to their use, liposomes were defrosted on ice and then destabilized by incubating with 0.2% CHAPS for 15 min at room temperature. Then 200 μg of purified odorant receptor^28 was added to 1 mg of liposomes and rotated at 10 rpm for 1 h at room temperature. Excess detergent was removed by four additions of 25 mg of Bio-Beads SM-2 (Bio-Rad, USA) and incubation at 4° C. for 30 min, 2 h, overnight and a further 2 h respectively. The Bio-Beads were removed after each incubation period. The OrX or OrX/Orco integrated liposomes were pelleted by centrifugation at 100,000 g for 1 h, and were resuspended in 500 μL of rehydration buffer. Integration of OrXs and Orco into liposomes was assessed by density gradient ultracentrifugation (DGU) using Accudenz (Accurate Chemical & Scientific Corporation, USA). The integrated liposomes were brought to 40% Accudenz by the addition of an equal volume of 80% Accudenz solution, placed at the bottom of an ultra-centrifugation tube, and overlaid with 30% Accudenz solution, and DGU buffer (25 mM HEPES pH 7.5, 100 mM NaCl, 10% glycerol). The sample was then centrifuged at 100,000 g for 4 h at 4° C. Liposomes will float to the top of the gradient after Accudenz DGU due to their low density.
2 mM MHA was prepared by dissolving 1.36 μl of MHA in 5 ml ethanol (AR grade). The cleaned electrodes were immersed into MHA solution and incubated overnight. The next day, all the electrodes were washed with ethanol and deionised water thoroughly in order to remove the unreacted acid. A 2:1 mol:mol ratio of EDC:NHS (100 mM EDC, 50 mM NHS) was prepared in 2 ml PBS (pH=6.5) solution. Then, the electrodes were covered in 100 μl of this solution at 28° C. for an hour to activate the carboxylic (COOH) groups of the MHA.
PBS solution was prepared by immersing one tablet of PBS in 200 ml of milli-Q water (according to manufacturers instructions) and filtered using 0.2-μm syringe filter. The pH of the prepared buffer solution was measured with a pH meter. […]

What does the source list for `CCCCCC(=O)OC` [methyl hexanoate]?
limit of detection (EIS dose response, ligand 1 aM to 100 μM): 0.1 fM; Sensitivity limit (Table 1, * estimated visually from dose response graph): ~10^−16 M*; Detection Range (Table 3): 10^−16-10^−5 M
